In patent US10899733B2, “Inhibitors of PARPs that catalyze mono-ADP-ribosylation” (OREGON HEALTH & SCIENCE UNIVERSITY, priority 2017, dated 2021):
Read-outs that look alike come from different tables or passages of the source.

Experiments:
Experiment in all cases: PARP panel: ADP-ribosylation of SRPK2 using 6-a-NAD+
Format in all cases: biochemical
PARP6S = PARP6S (Homo sapiens, UniProt Q2NL67)
PARP14cat-wwe [1] = details: PARP14cat-wwe over PARP10cat
Excerpt: (§1) We screened 22 against poly-ADPr PARPs (PARPs 1, 2, and PARP5b) and mono-ADPr PARPs (PARPs 3, 4, 10, 11, 14, and 15) in an assay that measures ADP-ribosylation of SRPK2 using an N^6-alkyne tagged NAD^+ (6-a-NAD^+), a clickable NAD^+ analogue.{Jiang et al., 2010, J. Am. Chem. Soc. […] The observed selectivity is most likely due to the differences in the last position of the H-Y-E catalytic triad of these enzymes versus the H-Y-I triad found in PARP10. {Hottiger et al., 2010, Trends Biochem. Sci. 35, pp. 208-219} The glutamate (E988 in PARP1) in PARPs 1-4 and PARP 5b most likely clash with the pyridiny-4-yl group at the 6-position of 22, while PARP10 contains an isoleucine (1978) at this position that can accommodate this group (FIG. 1B).

PARP11 = target: T1, PARP11 (Homo sapiens, UniProt Q9NR21)
T1 sequence (Q9NR21 1-338): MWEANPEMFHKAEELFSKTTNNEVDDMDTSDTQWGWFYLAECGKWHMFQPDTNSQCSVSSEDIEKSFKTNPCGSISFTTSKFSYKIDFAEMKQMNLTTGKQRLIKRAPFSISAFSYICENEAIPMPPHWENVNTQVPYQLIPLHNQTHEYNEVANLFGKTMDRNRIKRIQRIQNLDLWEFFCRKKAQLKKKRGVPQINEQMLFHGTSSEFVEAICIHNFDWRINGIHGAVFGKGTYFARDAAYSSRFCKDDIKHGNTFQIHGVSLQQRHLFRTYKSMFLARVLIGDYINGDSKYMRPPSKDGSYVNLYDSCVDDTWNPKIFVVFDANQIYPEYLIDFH
Excerpt: as §1

PARP10cat = target: T2, PARP10cat (Homo sapiens, UniProt Q53GL7)
T2 sequence (Q53GL7 806-1025 limits assumed): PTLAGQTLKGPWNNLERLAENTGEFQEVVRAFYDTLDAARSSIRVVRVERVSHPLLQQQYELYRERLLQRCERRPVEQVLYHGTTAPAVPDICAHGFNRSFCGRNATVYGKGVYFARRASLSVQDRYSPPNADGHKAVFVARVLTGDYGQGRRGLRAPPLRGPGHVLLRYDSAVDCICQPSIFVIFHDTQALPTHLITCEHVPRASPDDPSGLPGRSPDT
Excerpt: as §1

PARP2 = PARP2 (Homo sapiens, UniProt Q9UGN5)
PARP2, sequence (Q9UGN5 whole entry): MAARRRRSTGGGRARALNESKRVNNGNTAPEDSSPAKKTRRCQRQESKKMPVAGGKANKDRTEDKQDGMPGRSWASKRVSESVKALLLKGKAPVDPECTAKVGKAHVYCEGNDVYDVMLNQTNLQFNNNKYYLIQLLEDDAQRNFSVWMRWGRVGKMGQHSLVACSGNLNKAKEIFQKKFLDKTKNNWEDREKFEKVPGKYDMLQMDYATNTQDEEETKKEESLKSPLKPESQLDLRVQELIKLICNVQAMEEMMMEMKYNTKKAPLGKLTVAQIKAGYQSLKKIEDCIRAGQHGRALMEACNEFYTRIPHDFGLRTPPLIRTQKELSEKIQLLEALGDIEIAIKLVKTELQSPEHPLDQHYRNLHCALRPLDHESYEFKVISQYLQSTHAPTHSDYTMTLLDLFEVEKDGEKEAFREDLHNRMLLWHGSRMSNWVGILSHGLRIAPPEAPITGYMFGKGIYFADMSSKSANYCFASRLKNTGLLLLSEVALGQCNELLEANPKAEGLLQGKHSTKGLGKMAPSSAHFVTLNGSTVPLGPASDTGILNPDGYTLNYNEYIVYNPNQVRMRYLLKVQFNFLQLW
Excerpt: as §1

PARP4brct-cat [2] = details: PARP4brct-cat over PARP10cat
Excerpt: as §1

PARP4brct-cat [3] = target: T3, PARP4brct-cat (Homo sapiens, UniProt Q9UKK3); details: up to 100 μM
T3 construct: PARP4brct-cat
T3 sequence (Q9UKK3 whole entry): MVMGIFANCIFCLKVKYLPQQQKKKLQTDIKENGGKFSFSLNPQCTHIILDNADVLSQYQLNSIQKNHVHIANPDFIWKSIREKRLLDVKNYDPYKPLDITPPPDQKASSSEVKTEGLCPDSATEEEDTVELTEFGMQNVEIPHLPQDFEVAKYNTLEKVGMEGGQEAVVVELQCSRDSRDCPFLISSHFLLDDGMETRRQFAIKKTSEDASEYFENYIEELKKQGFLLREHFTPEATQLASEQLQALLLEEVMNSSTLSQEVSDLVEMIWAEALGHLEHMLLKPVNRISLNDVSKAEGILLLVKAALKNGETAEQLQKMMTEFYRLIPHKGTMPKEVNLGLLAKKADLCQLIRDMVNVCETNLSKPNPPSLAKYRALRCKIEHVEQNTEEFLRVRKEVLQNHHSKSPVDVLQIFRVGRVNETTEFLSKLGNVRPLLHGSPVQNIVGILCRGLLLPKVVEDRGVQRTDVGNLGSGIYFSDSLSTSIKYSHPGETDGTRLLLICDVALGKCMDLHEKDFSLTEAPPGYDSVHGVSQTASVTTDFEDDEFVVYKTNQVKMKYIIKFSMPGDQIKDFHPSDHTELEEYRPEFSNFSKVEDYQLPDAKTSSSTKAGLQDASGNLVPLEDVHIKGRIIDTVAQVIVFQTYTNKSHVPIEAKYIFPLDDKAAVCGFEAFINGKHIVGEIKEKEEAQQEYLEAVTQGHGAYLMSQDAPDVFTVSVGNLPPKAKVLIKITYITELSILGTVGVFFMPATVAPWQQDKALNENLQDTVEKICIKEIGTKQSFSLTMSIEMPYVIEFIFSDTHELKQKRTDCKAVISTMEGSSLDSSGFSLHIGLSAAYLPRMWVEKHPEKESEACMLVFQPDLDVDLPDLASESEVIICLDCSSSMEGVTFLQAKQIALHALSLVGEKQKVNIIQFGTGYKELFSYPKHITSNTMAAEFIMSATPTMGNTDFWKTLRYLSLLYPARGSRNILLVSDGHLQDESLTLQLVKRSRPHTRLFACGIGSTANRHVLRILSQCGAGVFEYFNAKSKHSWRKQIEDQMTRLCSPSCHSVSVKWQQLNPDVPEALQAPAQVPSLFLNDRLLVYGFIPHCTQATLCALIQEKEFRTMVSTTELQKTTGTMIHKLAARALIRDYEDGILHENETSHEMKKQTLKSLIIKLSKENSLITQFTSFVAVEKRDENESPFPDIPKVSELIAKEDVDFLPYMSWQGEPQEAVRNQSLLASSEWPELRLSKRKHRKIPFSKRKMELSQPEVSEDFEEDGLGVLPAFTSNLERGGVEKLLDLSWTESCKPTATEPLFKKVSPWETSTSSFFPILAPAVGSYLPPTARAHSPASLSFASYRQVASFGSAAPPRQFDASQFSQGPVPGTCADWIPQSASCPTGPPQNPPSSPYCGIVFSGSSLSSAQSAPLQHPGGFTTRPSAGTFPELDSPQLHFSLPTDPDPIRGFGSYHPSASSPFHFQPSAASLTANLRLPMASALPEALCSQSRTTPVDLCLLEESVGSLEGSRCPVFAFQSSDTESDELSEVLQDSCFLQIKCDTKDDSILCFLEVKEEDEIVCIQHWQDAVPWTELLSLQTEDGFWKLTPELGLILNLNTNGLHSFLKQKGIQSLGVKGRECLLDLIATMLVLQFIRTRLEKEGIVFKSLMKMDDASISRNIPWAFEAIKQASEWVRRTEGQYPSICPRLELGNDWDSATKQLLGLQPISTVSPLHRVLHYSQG
Excerpt: as §1

PARP14cat-wwe [4] = target: T4, PARP14cat-wwe (Homo sapiens, UniProt Q460N5); details: 6-a-NAD+
T4 construct: PARP14cat-wwe
T4 sequence (Q460N5 1523-1801): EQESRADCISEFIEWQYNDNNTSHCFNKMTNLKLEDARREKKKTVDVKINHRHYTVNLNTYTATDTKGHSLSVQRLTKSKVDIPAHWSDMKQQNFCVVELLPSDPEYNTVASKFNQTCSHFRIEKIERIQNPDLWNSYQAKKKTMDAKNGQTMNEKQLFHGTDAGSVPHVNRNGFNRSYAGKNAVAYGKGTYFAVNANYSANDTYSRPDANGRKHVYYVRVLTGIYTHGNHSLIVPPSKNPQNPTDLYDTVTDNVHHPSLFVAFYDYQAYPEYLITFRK
Excerpt: as §1

PARP1 = PARP1 (Homo sapiens, UniProt P09874)
PARP1, sequence (P09874 whole entry): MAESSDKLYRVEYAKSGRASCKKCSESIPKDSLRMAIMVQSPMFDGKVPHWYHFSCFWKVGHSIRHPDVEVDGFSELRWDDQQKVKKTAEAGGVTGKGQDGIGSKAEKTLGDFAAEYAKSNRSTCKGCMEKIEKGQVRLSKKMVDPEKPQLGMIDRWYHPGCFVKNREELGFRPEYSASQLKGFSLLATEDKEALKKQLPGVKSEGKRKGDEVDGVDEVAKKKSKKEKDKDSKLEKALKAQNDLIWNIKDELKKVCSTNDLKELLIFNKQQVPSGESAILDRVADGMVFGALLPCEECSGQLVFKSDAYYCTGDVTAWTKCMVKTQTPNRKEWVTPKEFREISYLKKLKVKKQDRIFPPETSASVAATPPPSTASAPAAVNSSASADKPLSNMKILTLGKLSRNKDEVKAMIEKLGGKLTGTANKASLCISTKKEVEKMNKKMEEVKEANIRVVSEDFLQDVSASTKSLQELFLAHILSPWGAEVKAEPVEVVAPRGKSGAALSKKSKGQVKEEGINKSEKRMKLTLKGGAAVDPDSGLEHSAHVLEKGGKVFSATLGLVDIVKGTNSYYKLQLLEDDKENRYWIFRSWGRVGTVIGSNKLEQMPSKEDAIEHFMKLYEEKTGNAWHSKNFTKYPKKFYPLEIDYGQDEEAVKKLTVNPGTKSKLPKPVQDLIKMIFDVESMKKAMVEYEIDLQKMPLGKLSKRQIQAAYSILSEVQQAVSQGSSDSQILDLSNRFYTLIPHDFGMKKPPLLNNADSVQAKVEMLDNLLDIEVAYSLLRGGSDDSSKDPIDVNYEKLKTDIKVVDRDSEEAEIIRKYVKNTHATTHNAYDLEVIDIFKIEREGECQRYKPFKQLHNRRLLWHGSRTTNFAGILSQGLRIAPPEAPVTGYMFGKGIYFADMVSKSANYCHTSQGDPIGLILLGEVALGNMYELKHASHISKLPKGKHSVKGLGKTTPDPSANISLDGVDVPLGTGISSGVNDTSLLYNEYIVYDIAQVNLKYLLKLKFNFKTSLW
Excerpt: as §1

PARP5bcat = target: T5, PARP5bcat (Homo sapiens, UniProt Q9H2K2)
T5 construct: PARP5bcat
T5 sequence (Q9H2K2 959-1164): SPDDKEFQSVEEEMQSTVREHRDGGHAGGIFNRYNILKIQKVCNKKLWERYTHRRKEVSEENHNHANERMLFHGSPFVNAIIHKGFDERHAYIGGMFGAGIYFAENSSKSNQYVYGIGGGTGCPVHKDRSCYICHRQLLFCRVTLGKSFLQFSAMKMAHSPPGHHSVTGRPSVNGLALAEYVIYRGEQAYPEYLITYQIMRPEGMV
Excerpt: as §1

PARP3 = target: T6, PARP3 (Homo sapiens, UniProt Q9Y6F1)
T6 sequence (Q9Y6F1 1-533): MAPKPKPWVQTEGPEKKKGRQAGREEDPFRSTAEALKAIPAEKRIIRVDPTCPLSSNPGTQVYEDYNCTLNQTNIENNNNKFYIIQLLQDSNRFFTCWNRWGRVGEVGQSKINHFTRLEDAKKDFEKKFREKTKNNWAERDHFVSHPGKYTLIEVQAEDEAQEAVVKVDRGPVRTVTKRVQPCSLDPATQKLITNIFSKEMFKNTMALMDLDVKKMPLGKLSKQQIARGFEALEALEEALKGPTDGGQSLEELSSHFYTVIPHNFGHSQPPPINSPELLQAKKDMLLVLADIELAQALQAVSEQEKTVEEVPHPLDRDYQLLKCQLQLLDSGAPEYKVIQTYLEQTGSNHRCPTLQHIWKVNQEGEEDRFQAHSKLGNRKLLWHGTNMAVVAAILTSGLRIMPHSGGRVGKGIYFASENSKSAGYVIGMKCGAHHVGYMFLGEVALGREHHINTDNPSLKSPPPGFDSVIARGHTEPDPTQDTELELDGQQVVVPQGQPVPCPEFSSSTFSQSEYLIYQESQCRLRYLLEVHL
Excerpt: as §1

PARP15cat = target: T7, PARP15cat (Homo sapiens, UniProt Q460N3)
T7 construct: PARP15cat
T7 sequence (Q460N3 482-678 limits assumed): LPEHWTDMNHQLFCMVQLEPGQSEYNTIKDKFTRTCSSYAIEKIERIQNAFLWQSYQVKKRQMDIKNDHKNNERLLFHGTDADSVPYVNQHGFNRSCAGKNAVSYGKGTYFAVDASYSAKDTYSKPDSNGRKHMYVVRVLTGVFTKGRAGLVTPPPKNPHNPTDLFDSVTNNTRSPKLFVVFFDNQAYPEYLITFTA
Excerpt: as §1

PARP6S, sequence (Q2NL67 1-518 isoform Q2NL67-2): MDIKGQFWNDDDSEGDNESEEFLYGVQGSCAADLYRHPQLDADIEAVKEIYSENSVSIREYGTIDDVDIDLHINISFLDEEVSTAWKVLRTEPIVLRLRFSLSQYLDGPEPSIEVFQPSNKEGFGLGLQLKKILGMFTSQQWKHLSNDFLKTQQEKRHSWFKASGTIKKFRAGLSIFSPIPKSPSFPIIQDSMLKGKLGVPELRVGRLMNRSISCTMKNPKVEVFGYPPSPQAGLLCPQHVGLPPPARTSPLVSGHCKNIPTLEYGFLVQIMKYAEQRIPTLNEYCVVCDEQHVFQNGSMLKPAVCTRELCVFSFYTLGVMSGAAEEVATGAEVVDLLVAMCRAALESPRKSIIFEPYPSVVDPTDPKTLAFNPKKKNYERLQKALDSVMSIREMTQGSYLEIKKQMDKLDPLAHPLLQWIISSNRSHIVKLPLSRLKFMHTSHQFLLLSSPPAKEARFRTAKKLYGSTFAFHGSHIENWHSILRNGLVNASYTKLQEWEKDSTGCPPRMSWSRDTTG

Compound: Cc1c(-c2ccnc(C(F)(F)F)c2)ccc2c1CCNC2=O [Compound 22, 5-methyl-6-(2-(trifluoromethyl)pyridin-4-yl)-3,4-dihydroisoquinolin-1(2H)-one]
- IC50 (PARP6S; 6-a-NAD+): > 30 µM
- PARP/PARP10 (PARP6S; PARP6S over PARP10cat): >10
- PARP/PARP10 (PARP14cat-wwe [1]): 22
- IC50 (PARP11; 6-a-NAD+): 62.9 µM
- PARP/PARP10 (PARP11; PARP11 over PARP10cat): 23
- selectivity for PARP10 over PARPs 1-4 and PARP 5b (PARP10cat; 6-a-NAD+): greater than 37 fold
- IC50 (PARP10cat; 6-a-NAD+, read-out: PARP10cat IC50): 2.7 µM
- IC50 (PARP10cat; 6-a-NAD+, read-out: PARP10cat pIC50 ± S.E.M. (converted)): 2.75 µM
- PARP/PARP10 (PARP10cat; PARP10cat over PARP10cat): 1
- IC50 (PARP2; 6-a-NAD+): > 100 µM
- PARP/PARP10 (PARP2; PARP2 over PARP10cat): >37
- inhibition of PARP2 (PARP2; up to 100 μM): does not inhibit
- PARP/PARP10 (PARP4brct-cat [2]): >37
- inhibition of PARP4 (PARP4brct-cat [3]): does not inhibit
- IC50 (PARP14cat-wwe [4]): 60.5 µM
- PARP14cat-wwe pIC50 ± S.E.M. (PARP14cat-wwe [4]): 4.22 ± 0.04
- IC50 (PARP1; 6-a-NAD+): > 100 µM
- PARP/PARP10 (PARP1; PARP1 over PARP10cat): >>37
- inhibition of PARP1 (PARP1; up to 100 μM): does not inhibit
- IC50 (PARP5bcat; 6-a-NAD+): > 100 µM
- PARP/PARP10 (PARP5bcat; PARP5bcat over PARP10cat): >>37
- inhibition of PARP 5b (PARP5bcat; up to 100 μM): does not inhibit
- IC50 (PARP3; 6-a-NAD+): > 100 µM
- PARP/PARP10 (PARP3; PARP3 over PARP10cat): >>37
- inhibition of PARP3 (PARP3; up to 100 μM): does not inhibit
- IC50 (PARP15cat; 6-a-NAD+): 62.9 µM
- PARP15cat pIC50 ± S.E.M. (PARP15cat; 6-a-NAD+): 4.20 ± 0.05
- PARP/PARP10 (PARP15cat; PARP15cat over PARP10cat): 23
